Values joined by “and” are separate entries in the source; they are usually repeats but may differ in a detail not shown here. Equal entries are not always repeated. Where two headings read alike, the source gives them in different places.
Legend:
acetylcholinesterase = conditions: cited from earlier work
[1] = Pyridostigmine level in rat sera after intramuscular dose, by RIA; format: in vivo; conditions: for concentration at 5 min / concentration at 10 min / concentration at 0.25 h / concentration at 0.5 h / concentration at 1 h / concentration at 2 h / concentration at 3 h / concentration at 4 h: rat, serum, im
Description: To further validate the RIA and the antibody specificity of the present invention, additional rat studies were conducted. Male rats were housed two per cage at 23° C. with a twelve hour on-off light cycle. The animals were given food and water ad libitum. After sixty days, food was withheld for twelve hours. Then pyridostigmine was administered (1.0 mg. of pyridostigmine bromide in physiologic saline/Kg) intramuscularly to the rats weighing between 450 and 550 grams.
Groups of three animals were sacrificed by using inhalation anesthetic, Fluothane (0.01% thymol, w/w; and 0.00025% ammonia, w/w) Ayerst Laboratories, New York, N.Y. at various times after dosing, namely at 0, 5, 10, 15, 30, 60 minutes and at 2, 3, 4 and 6 hours. Blood was collected via heart puncture, and serum was separated by centrifugation at 2000 xg for 20 minutes. Table 4 gives the pyridostigmine level in the plasma of three male rats for each time interval as determined by the RIA of the present invention.

## CN(C)C(=O)Oc1ccc[n+](C)c1 [Pyridostigmine]
acetylcholinesterase
  cholinesterase inhibition: reversible cholinesterase inhibitor
[1]; 0 min, 1.0 mg/kg pyridostigmine bromide i.m., male rats
  Pyridostigmine in the Rat Sera, Mean ± S.D.: 0 ng/mL
[1]; 0 min, 1.0 mg/kg pyridostigmine bromide i.m., male rats #1, #2, #3 in order
  Pyridostigmine in the Rat Sera, individual animals: 0 ng/mL
[1]; 5 min, 1.0 mg/kg i.m., male rats #1, #2 in order, 1 mg/kg
  Pyridostigmine in the Rat Sera, individual animals: 550 ng/mL
[1]; 10 min, 1.0 mg/kg i.m., male rats #1, #2 in order, 1 mg/kg
  Pyridostigmine in the Rat Sera, individual animals: 470 ng/mL
[1]; 15 min, 1.0 mg/kg i.m., male rats #1, #2, #3 in order, 1 mg/kg
  Pyridostigmine in the Rat Sera, individual animals: 300 ng/mL
[1]; 30 min, 1.0 mg/kg i.m., male rats #1, #2, #3 in order, 1 mg/kg
  Pyridostigmine in the Rat Sera, individual animals: 220 ng/mL
[1]; 60 min, 1.0 mg/kg i.m., male rats #1, #2, #3 in order, 1 mg/kg
  Pyridostigmine in the Rat Sera, individual animals: 110 ng/mL
[1]; 2 hr, 1.0 mg/kg i.m., male rats #1, #2, #3 in order, 1 mg/kg, 120 min
  Pyridostigmine in the Rat Sera, individual animals: 25 ng/mL and 15 ng/mL
[1]; 3 hr, 1.0 mg/kg i.m., male rats #1, #2 in order, 1 mg/kg, 180 min
  Pyridostigmine in the Rat Sera, individual animals: 14 ng/mL
[1]; 4 hr, 1.0 mg/kg i.m., male rats #1, #2, #3 in order, 1 mg/kg, 240 min
  Pyridostigmine in the Rat Sera, individual animals: 5 ng/mL and 6.5 ng/mL
[1]; 1 mg/kg, 5 min, 1.0 mg/kg i.m., male rats #1, #2 in order, read-out: Pyridostigmine in the Rat Sera, individual animals
  concentration at 5 min: 600 ng/mL
[1]; 1 mg/kg, 5 min, 1.0 mg/kg i.m., male rats, read-out: Pyridostigmine in the Rat Sera, Mean ± S.D.
  concentration at 5 min: 575 ± 35.4 ng/mL
[1]; 1 mg/kg, 10 min, 1.0 mg/kg i.m., male rats #1, #2 in order, read-out: Pyridostigmine in the Rat Sera, individual animals
  concentration at 10 min: 450 ng/mL
[1]; 1 mg/kg, 10 min, 1.0 mg/kg i.m., male rats, read-out: Pyridostigmine in the Rat Sera, Mean ± S.D.
  concentration at 10 min: 460 ± 14.1 ng/mL
[1]; 1 mg/kg, 15 min, 1.0 mg/kg i.m., male rats #1, #2, #3 in order, read-out: Pyridostigmine in the Rat Sera, individual animals
  concentration at 0.25 h: 400 ng/mL
[1]; 1 mg/kg, 15 min, 1.0 mg/kg i.m., male rats, read-out: Pyridostigmine in the Rat Sera, Mean ± S.D.
  concentration at 0.25 h: 387 ± 80.8 ng/mL
[1]; 1 mg/kg, 30 min, 1.0 mg/kg i.m., male rats #1, #2, #3 in order, read-out: Pyridostigmine in the Rat Sera, individual animals
  concentration at 0.5 h: 250 ng/mL
[1]; 1 mg/kg, 30 min, 1.0 mg/kg i.m., male rats, read-out: Pyridostigmine in the Rat Sera, Mean ± S.D.
  concentration at 0.5 h: 290 ± 96.4 ng/mL
[1]; 1 mg/kg, 60 min, 1.0 mg/kg i.m., male rats #1, #2, #3 in order, read-out: Pyridostigmine in the Rat Sera, individual animals
  concentration at 1 h: 140 ng/mL
[1]; 1 mg/kg, 60 min, 1.0 mg/kg i.m., male rats, read-out: Pyridostigmine in the Rat Sera, Mean ± S.D.
  concentration at 1 h: 130 ± 17.3 ng/mL
[1]; 1 mg/kg, 2 hr, 1.0 mg/kg i.m., male rats #1, #2, #3 in order, read-out: Pyridostigmine in the Rat Sera, individual animals
  concentration at 2 h: 24 ng/mL
[1]; 1 mg/kg, 2 hr, 1.0 mg/kg i.m., male rats, read-out: Pyridostigmine in the Rat Sera, Mean ± S.D.
  concentration at 2 h: 21 ± 5.51 ng/mL
[1]; 1 mg/kg, 3 hr, 1.0 mg/kg i.m., male rats #1, #2 in order, read-out: Pyridostigmine in the Rat Sera, individual animals
  concentration at 3 h: 12 ng/mL
[1]; 1 mg/kg, 3 hr, 1.0 mg/kg i.m., male rats, read-out: Pyridostigmine in the Rat Sera, Mean ± S.D.
  concentration at 3 h: 13 ± 1.41 ng/mL
[1]; 1 mg/kg, 4 hr, 1.0 mg/kg i.m., male rats #1, #2, #3 in order, read-out: Pyridostigmine in the Rat Sera, individual animals
  concentration at 4 h: 7.5 ng/mL
[1]; 1 mg/kg, 4 hr, 1.0 mg/kg i.m., male rats, read-out: Pyridostigmine in the Rat Sera, Mean ± S.D.
  concentration at 4 h: 6 ± 1.26 ng/mL
